Source: US12441691B2 (Cytokinetics, Inc., priority 2020, dated 2025)

What follows are compounds tested on rabbit skeletal myofibrils (fast skeletal myofibrils) (assay: Activation of fast skeletal myofibrils (PUMA assay, AC1.4)). Conditions: calcium at pCa25, AC1.4 = concentration at which the compound increased the enzymatic activity.
Format: biochemical
Procedure, shortened: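 In 12 mM PIPES pH 6.8 with 2 mM MgCl2 and 1 mM DTT, Triton-washed rabbit skeletal myofibrils were run at the pCa25 calcium level. Myosin-made ADP was recycled through a PK/LDH coupled system; NADH loss read at 340 nm.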

In order of falling AC1.4:
1. CC[C@H](C)[C@H]1C(=O)Nc2cccc(C3CC3)c2CN1C(N)=O [Compound 68, (S)-3-((S)-sec-butyl)-6-cyclopropyl-2-oxo-1,2,3,5-tetrahydro-4H-benzo[e][1,4]diazepine-4-carboxamide]  4.30 µM
2. C[C@@H](OCc1ccccc1)[C@H]1C(=O)Nc2ccccc2CN1C(=O)c1cnn(C)c1 [Compound 200, (S)-3-((R)-1-(benzyloxy)ethyl)-4-(1-methyl-1H-pyrazole-4-carbonyl)-1,3,4,5-tetrahydro-2H-benzo[e][1,4]diazepin-2-one]  4.22 µM
3. CC[C@H](C)[C@H]1C(=O)Nc2ccccc2CN1C(=O)N1CCC[C@@H](NS(C)(=O)=O)C1 [Compound 248, N-((R)-1-((S)-3-((S)-sec-butyl)-2-oxo-2,3,4,5-tetrahydro-1H-benzo[e][1,4]diazepine-4-carbonyl)piperidin-3-yl)methanesulfonamide]  3.71 µM
4. CC[C@H](C)[C@H]1C(=O)Nc2cccc(F)c2CN1C(=O)CCO [Compound 339, (S)-3-((S)-sec-butyl)-6-fluoro-4-(3-hydroxypropanoyl)-1,3,4,5-tetrahydro-2H-benzo[e][1,4]diazepin-2-one]  2.79 µM
5. CC(C)[C@H]1C(=O)Nc2ccccc2CN1C(=O)c1cnn(CCO)c1 [Compound 328, (S)-4-(1-(2-hydroxyethyl)-1H-pyrazole-4-carbonyl)-3-isopropyl-1,3,4,5-tetrahydro-2H-benzo[e][1,4]diazepin-2-one]  2.56 µM
6. CC[C@H](C)[C@H]1C(=O)Nc2ccc(C3CC3)cc2CN1C(N)=O [Compound 74, (S)-3-((S)-sec-butyl)-7-cyclopropyl-2-oxo-1,2,3,5-tetrahydro-4H-benzo[e][1,4]diazepine-4-carboxamide]  2.39 µM
7. CC[C@H](C)[C@H]1C(=O)Nc2ccc(F)cc2CN1C(=O)CO [Compound 341, (S)-3-((S)-sec-butyl)-7-fluoro-4-(2-hydroxyacetyl)-1,3,4,5-tetrahydro-2H-benzo[e][1,4]diazepin-2-one]  2.37 µM
8. CC[C@H](C)[C@H]1C(=O)Nc2ccccc2CN1C(=O)N1CCCC(C(N)=O)C1 (stereo partly drawn) [Compound 304, 1-((S)-3-((S)-sec-butyl)-2-oxo-2,3,4,5-tetrahydro-1H-benzo[e][1,4]diazepine-4-carbonyl)piperidine-3-carboxamide]  2.27 µM
9. CC[C@H](C)[C@H]1C(=O)Nc2ccc(F)cc2CN1C(=O)N[C@H]1CC[C@H](O)C1 [Compound 353, (S)-3-((S)-sec-butyl)-7-fluoro-N-((1S,3S)-3-hydroxycyclopentyl)-2-oxo-1,2,3,5-tetrahydro-4H-benzo[e][1,4]diazepine-4-carboxamide]  1.76 µM
10. CC[C@H](C)[C@H]1C(=O)Nc2ccccc2CN1C(=O)[C@@H](C)NC(C)=O [Compound 198, N-((R)-1-((S)-3-((S)-sec-butyl)-2-oxo-1,2,3,5-tetrahydro-4H-benzo[e][1,4]diazepin-4-yl)-1-oxopropan-2-yl)acetamide]  1.66 µM
11. CC[C@H](C)[C@H]1C(=O)Nc2ccccc2CN1C(=O)N1CC[C@H](C(=O)OC)C1 [Compound 279, methyl (S)-1-((S)-3-((S)-sec-butyl)-2-oxo-2,3,4,5-tetrahydro-1H-benzo[e][1,4]diazepine-4-carbonyl)pyrrolidine-3-carboxylate]  1.46 µM
12. CC(C)[C@H]1C(=O)Nc2ccccc2CN1C(=O)c1ccn(C)n1 [Compound 322, (S)-3-isopropyl-4-(1-methyl-1H-pyrazole-3-carbonyl)-1,3,4,5-tetrahydro-2H-benzo[e][1,4]diazepin-2-one]  1.15 µM
13. CC[C@H](C)[C@H]1C(=O)Nc2ccccc2CN1C(=O)N1CC(OCC(=O)NC)C1 [Compound 270, 2-((1-((S)-3-((S)-sec-butyl)-2-oxo-2,3,4,5-tetrahydro-1H-benzo[e][1,4]diazepine-4-carbonyl)azetidin-3-yl)oxy)-N-methylacetamide]  0.94 µM
14. CC[C@H](C)[C@H]1C(=O)Nc2ccccc2CN1C(=O)c1ccc(=O)n(C)c1 [Compound 156, (S)-3-((S)-sec-butyl)-4-(1-methyl-6-oxo-1,6-dihydropyridine-3-carbonyl)-1,3,4,5-tetrahydro-2H-benzo[e][1,4]diazepin-2-one]  0.90 µM
15. CC(C)[C@H]1C(=O)Nc2ccccc2CN1c1c(N)c(=O)c1=O [Compound 334, (S)-3-amino-4-(3-isopropyl-2-oxo-1,2,3,5-tetrahydro-4H-benzo[e][1,4]diazepin-4-yl)cyclobut-3-ene-1,2-dione]  0.65 µM
16. CC[C@H](C)[C@H]1C(=O)Nc2ccccc2CN1C(=O)NC1CCOCC1 [Compound 293, (S)-3-((S)-sec-butyl)-2-oxo-N-(tetrahydro-2H-pyran-4-yl)-1,2,3,5-tetrahydro-4H-benzo[e][1,4]diazepine-4-carboxamide]  0.55 µM
17. CC[C@H](C)[C@H]1C(=O)Nc2cnccc2CN1c1c(NCCOC)c(=O)c1=O [Compound 381, 3-((S)-3-((S)-sec-butyl)-2-oxo-1,2,3,5-tetrahydro-4H-pyrido[3,4-e][1,4]diazepin-4-yl)-4-((2-methoxyethyl)amino)cyclobut-3-ene-1,2-dione]  0.48 µM
18. CC[C@H](C)[C@H]1C(=O)Nc2cncc(F)c2CN1C(=O)Nc1ccn(C)n1 [Compound 368, (S)-3-((S)-sec-butyl)-6-fluoro-N-(1-methyl-1H-pyrazol-3-yl)-2-oxo-1,2,3,5-tetrahydro-4H-pyrido[3,4-e][1,4]diazepine-4-carboxamide]  0.41 µM
19. O=C1Nc2ccccc2CN(C(=O)CO)[C@H]1C1CCCCC1 [Compound 92, (S)-3-cyclohexyl-4-(2-hydroxyacetyl)-1,3,4,5-tetrahydro-2H-benzo[e][1,4]diazepin-2-one]  0.40 µM
20. NC(=O)N1Cc2ccccc2NC(=O)[C@@H]1C1CCCC1 [Compound 123, (S)-3-cyclopentyl-2-oxo-1,2,3,5-tetrahydro-4H-benzo[e][1,4]diazepine-4-carboxamide]  0.35 µM
21. CC[C@H](C)[C@H]1C(=O)Nc2cc(F)ccc2CN1C(=O)CO [Compound 42, (S)-3-((S)-sec-butyl)-8-fluoro-4-(2-hydroxyacetyl)-1,3,4,5-tetrahydro-2H-benzo[e][1,4]diazepin-2-one]  0.33 µM
22. CC[C@H](C)[C@H]1C(=O)Nc2ccccc2CN1c1noc(C)n1 [Compound 55, (S)-3-((S)-sec-Butyl)-4-(5-methyl-1,2,4-oxadiazol-3-yl)-1,3,4,5-tetrahydro-2H-benzo[e][1,4]diazepin-2-one]  0.21 µM
23. CC[C@H](C)[C@H]1C(=O)Nc2ccccc2CN1c1c(N2CCOCC2)c(=O)c1=O [Compound 372, 3-((S)-3-((S)-sec-butyl)-2-oxo-1,2,3,5-tetrahydro-4H-benzo[e][1,4]diazepin-4-yl)-4-morpholinocyclobut-3-ene-1,2-dione]  0.18 µM
24. CC[C@H](C)[C@H]1C(=O)Nc2ccccc2CN1C(=O)c1ncc[nH]1 [Compound 160, (S)-3-((S)-sec-butyl)-4-(1H-imidazole-2-carbonyl)-1,3,4,5-tetrahydro-2H-benzo[e][1,4]diazepin-2-one]  0.16 µM
25. CC[C@H](C)[C@H]1C(=O)Nc2ccccc2CN1/C(N)=N/C(C)=O [Compound 113, N-((E)-amino((S)-3-((S)-sec-butyl)-2-oxo-1,2,3,5-tetrahydro-2H-benzo[e][1,4]diazepin-4-yl)methylene)acetamide]  0.15 µM
26. CC[C@H](C)[C@H]1C(=O)Nc2ccccc2CN1C(=O)N1CC(F)C1 [Compound 306, (S)-3-((S)-sec-butyl)-4-(3-fluoroazetidine-1-carbonyl)-1,3,4,5-tetrahydro-2H-benzo[e][1,4]diazepin-2-one]  0.11 µM
27. CC[C@H](C)[C@H]1C(=O)Nc2ccccc2[C@H](C)N1C(=O)c1cnn(C)c1 (single isomer, unassigned) [Compound 38]  0.10 µM
28. CC[C@H](C)[C@H]1C(=O)Nc2ccccc2CN1c1cc(=O)[nH]cn1 [Compound 54, (S)-3-((S)-sec-butyl)-4-(6-oxo-1,6-dihydropyrimidin-4-yl)-1,3,4,5-tetrahydro-2H-benzo[e][1,4]diazepin-2-one]  0.09 µM
29. CC[C@H](C)[C@H]1C(=O)Nc2ccccc2CN1C(=O)Nc1cccc(F)c1 [Compound 277, (S)-3-((S)-sec-butyl)-N-(3-fluorophenyl)-2-oxo-1,2,3,5-tetrahydro-4H-benzo[e][1,4]diazepine-4-carboxamide]  0.08 µM
30. CC[C@H](C)[C@H]1C(=O)Nc2ccccc2CN1C(=O)c1c[nH]cn1 [Compound 104, (S)-3-((S)-sec-butyl)-4-(1H-imidazole-4-carbonyl)-1,3,4,5-tetrahydro-2H-benzo[e][1,4]diazepin-2-one]  0.08 µM
31. CC[C@H](C)[C@H]1C(=O)Nc2ccccc2CN1C(=O)Nc1ccc(=O)n(CC(F)(F)F)n1 [Compound 275, (S)-3-((S)-sec-butyl)-2-oxo-N-(6-oxo-1-(2,2,2-trifluoroethyl)-1,6-dihydropyridazin-3-yl)-1,2,3,5-tetrahydro-4H-benzo[e][1,4]diazepine-4-carboxamide]  0.06 µM
32. CC[C@H](C)[C@H]1C(=O)Nc2ccccc2CN1C(=O)c1ccc2[nH]c(C(N)=O)cc2n1 [Compound 169, 5-((S)-3-((S)-sec-butyl)-2-oxo-2,3,4,5-tetrahydro-1H-benzo[e][1,4]diazepine-4-carbonyl)-1H-pyrrolo[3,2-b]pyridine-2-carboxamide]  0.06 µM
33. CC[C@H](C)[C@H]1C(=O)Nc2ccccc2CN1c1nc(OC)cc(OC)n1 [Compound 116, (S)-3-((S)-sec-butyl)-4-(4,6-dimethoxypyrimidin-2-yl)-1,3,4,5-tetrahydro-2H-benzo[e][1,4]diazepin-2-one]  0.05 µM
34. CC[C@H](C)[C@H]1C(=O)Nc2ccccc2CN1c1nc(N)cc(=O)[nH]1 [Compound 52, (S)-4-(4-Amino-6-oxo-1,6-dihydropyrimidin-2-yl)-3-((S)-sec-butyl)-1,3,4,5-tetrahydro-2H-benzo[e][1,4]diazepin-2-one]  0.03 µM
